Earlier results in patent US10286065B2 (priority 2014, dated 2019).

For `CCC(=O)O[C@]1(C(=O)SCF)[C@H](C)C[C@H]2[C@@H]3C[C@H](F)C4=CC(=O)C=C[C@]4(C)[C@@]3(F)[C@@H](O)C[C@@]21C` [Fluticasone propionate], the “solubility in dimethyl sulfoxide and dimethylformamide” value (dimethyl sulfoxide and dimethylformamide) is listed as “freely soluble”, the “solubility in methanol and 95% ethanol” value (methanol and 95% ethanol) is listed as “slightly soluble” and the solubility in water (water) is listed as “practically insoluble”.
